Patent US12679878B2, “CRF2 receptor agonists and their use in therapy” (SANOFI, priority 2020, dated 2026)
Converted amounts (≈) assume the structure as drawn. Like-named read-outs stand apart in the source and are kept apart here. Each block holds one molecule with its values, some of them ahead of it. Starred links: 1 amine or outer side, 2 acyl side, 3 side chain; linkers in the order of their positions; H or OH if unused. Non-standard residues stand in square brackets, D forms with d. Residues, ends and D or L forms follow the SMILES beside them. Groups on a side chain read outwards from the residue. *: point of attachment. C20 diacid = O=C(O)CCCCCCCCCCCCCCCCCCC(=O)*; C18 diacid = O=C(O)CCCCCCCCCCCCCCCCC(=O)*; γGlu = O=C(O)[C@H](CCC(=O)[*:2])N[*:1]; AEEA = NCCOCCOCC(=O)O; Aib = CC(C)(N)C(=O)O

How the values were obtained:
[1] = molecular target: T1, recombinant human CRF2 (Homo sapiens, UniProt Q13324); experiment: CRF2a (h) agonist radioligand binding, [125]sauvagine, HEK cell membranes (Example 11); conditions: competition with [125]sauvagine 0.1 nM
T1 construct: expressed in transfected cells; host or cells: HEK
T1 sequence (Q13324 1-411): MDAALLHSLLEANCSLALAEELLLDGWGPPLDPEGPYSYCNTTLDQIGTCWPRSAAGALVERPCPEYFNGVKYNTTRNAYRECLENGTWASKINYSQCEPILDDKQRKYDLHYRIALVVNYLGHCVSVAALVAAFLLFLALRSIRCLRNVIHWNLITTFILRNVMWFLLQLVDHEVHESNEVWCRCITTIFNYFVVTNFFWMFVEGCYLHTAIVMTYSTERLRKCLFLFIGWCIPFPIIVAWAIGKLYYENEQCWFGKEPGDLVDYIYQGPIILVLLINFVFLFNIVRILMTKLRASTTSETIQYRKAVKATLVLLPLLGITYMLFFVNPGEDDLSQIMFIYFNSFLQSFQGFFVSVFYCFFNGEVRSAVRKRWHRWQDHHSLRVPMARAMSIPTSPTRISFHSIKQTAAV
Protocol: Receptor binding of the compounds was assessed using a CRF2a (h) (agonist radioligand) assay.
HEK cells expressing recombinant human CRF2 were used as a source of receptor for membrane preparation.
IC50 values (concentration causing a half-maximal inhibition of control specific binding) and Hill coefficients (nH) were determined by non-linear regression analysis of the competition curves generated with mean replicate values using Hill equation curve fitting. The inhibition constants (Ki) were calculated using the Cheng Prusoff equation [Ki=IC50/(1+L/KD) where L is the concentration of radioligand in the assay, and KD is the affinity of the radioligand for the receptor). A Scatchard plot was used to determine the KD.

[2] = Solubility in buffer systems by UPLC-UV (Example 13); type: physicochemical
Outline: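 Quantitation used UV peak area from UPLC of the 1:10-diluted supernatant, set against a reference-compound standard curve with extinction coefficients adjusted for amino acid sequence.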

[3] = Physical stability, Thioflavin T fibrillation assay (Example 14); type: physicochemical; conditions: 3 mg/ml, 37° C. shaking
Outline: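 Fibrillation tendency was judged from lag time and rise in Thioflavin T fluorescence, measured every 20 minutes over eight replicates per sample. Peptides at 3 mg/ml final were held at 37° C under cycles of 10 s shaking (960 rpm) and 50 s rest.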

[4] = Physical stability, dynamic light scattering assay (Example 15); type: physicochemical; conditions: for Apparent Rh [nm] 4 weeks / Scattering Intensity (I) [%] 4 weeks: 4 weeks at 40° C.
Outline: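 DLS at 837 nm, 150° angle, +25° C; Rh, scattering intensity and mass contribution measured at 0 weeks and after 4 weeks at 40° C. Rh and D compared at 1, 5 and 10 mg/ml as kD surrogate; separate measurements at 300 μM, purity-corrected.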

[5] = pH 4.5, Solubility in Buffer B [mg/ml]
[6] = pH 7.4, Solubility in Buffer C [mg/ml]
[7] = Buffer A: 100 mM acetate buffer, pH 4.5
[8] = Buffer B: 100 mM acetate buffer, pH 4.5, 2.7 mg/ml m-cresol
[9] = Buffer C (20 mM phosphate, pH 6.2)
[10] = Buffer A (100 mM acetate, pH 4.5)
[11] = Buffer D (20 mM phosphate, pH 7.4)

nH (Hill coefficient) [1]: 1.7
solubility at 1 h [2, 5]: > 8700 µg/mL
solubility at 1 h [2, 6]: > 9800 µg/mL
Increase in FI (fluorescence intensity) [3, 7]: No
Lag time [3, 7]: >45 h
Increase in FI (fluorescence intensity) [3, 8]: No
Lag time [3, 8]: >45 h
SMILES: CC[C@H](C)[C@H](N)C(=O)N[C@H](C(=O)N[C@@H](CC(C)C)C(=O)N[C@@H](CO)C(=O)N[C@@H](CC(C)C)C(=O)N[C@@H](CC(=O)O)C(=O)N[C@H](C(=O)N1CCC[C@H]1C(=O)N[C@H](C(=O)N[C@@H](CCCCN)C(=O)N[C@@H](CC(C)C)C(=O)N[C@@H](CCCCNC(=O)COCCOCCNC(=O)COCCOCCNC(=O)CC[C@H](NC(=O)CCCCCCCCCCCCCCCCC(=O)O)C(=O)O)C(=O)N[C@@H](CCCCN)C(=O)N[C@H](C(=O)N[C@@H](CC(C)C)C(=O)N[C@@H](CC(C)C)C(=O)N[C@@H](CCC(=O)O)C(=O)N[C@@H](CCC(N)=O)C(=O)N[C@@H](CCC(=O)O)C(=O)N[C@@H](CCCCN)C(=O)N[C@@H](CCC(N)=O)C(=O)N[C@@H](CCCCN)C(=O)N[C@@H](CCCCN)C(=O)N[C@@H](CCC(N)=O)C(=O)N[C@@H](CCCNC(=N)N)C(=O)N[C@@H](CCC(=O)O)C(=O)N[C@@H](CCC(N)=O)C(=O)N[C@@H](C)C(=O)N[C@@H](CCC(=O)O)C(=O)N[C@H](C(=O)N[C@@H](CC(N)=O)C(=O)N[C@@H](CCCCN)C(=O)N[C@@H](CCC(N)=O)C(=O)N[C@H](C(=O)N[C@@H](CC(C)C)C(=O)N[C@@H](C)C(=O)N[C@@H](CCC(N)=O)C(=O)N[C@H](C(N)=O)C(C)C)[C@@H](C)CC)[C@@H](C)O)[C@@H](C)CC)[C@@H](C)CC)C(C)C)C(C)C [compound 35] (H-IVLSLDVPIKLK([AEEA-AEEA-γGlu-C18 diacid])KILLEQEKQKKQREQAETNKQILAQV-NH2; N-terminus assumed)

SMILES: CC[C@H](C)[C@H](NC(=O)[C@H](CCC(N)=O)NC(=O)[C@H](CCC(=O)O)NC(=O)[C@H](CC(C)C)NC(=O)[C@H](CC(C)C)NC(=O)[C@H](CCC(N)=O)NC(=O)[C@H](CCCCN)NC(=O)[C@H](CC(N)=O)NC(=O)[C@H](CCCCN)NC(=O)[C@H](CCC(=O)O)NC(=O)[C@H](C)NC(=O)[C@H](CCC(N)=O)NC(=O)[C@H](CCC(N)=O)NC(=O)[C@H](CCCNC(=N)N)NC(=O)[C@H](CCC(=O)O)NC(=O)[C@H](CCCCN)NC(=O)[C@H](CCCCN)NC(=O)[C@H](CCC(N)=O)NC(=O)[C@H](CCCCN)NC(=O)[C@H](CCC(N)=O)NC(=O)[C@H](CCC(N)=O)NC(=O)[C@H](CCCCN)NC(=O)[C@H](CC(C)C)NC(=O)[C@H](CC(C)C)NC(=O)[C@@H](NC(=O)[C@H](CCC(N)=O)NC(=O)[C@H](CCCCNC(=O)COCCOCCNC(=O)COCCOCCNC(=O)CC[C@H](NC(=O)CCCCCCCCCCCCCCCCCCC(=O)O)C(=O)O)NC(=O)[C@@H](NC(=O)[C@H](CCCCN)NC(=O)[C@@H](NC(=O)[C@@H]1CCCN1C(=O)[C@@H](NC(=O)[C@H](CC(=O)O)NC(=O)[C@H](CC(C)C)NC(=O)[C@H](CO)NC(=O)[C@H](CC(C)C)NC(=O)[C@@H](NC(=O)[C@@H](N)Cc1ccccc1)[C@@H](C)O)C(C)C)[C@@H](C)O)[C@@H](C)CC)[C@@H](C)CC)C(N)=O [compound 59] (H-FTLSLDVPTKIK([AEEA-AEEA-γGlu-C20 diacid])QILLKQQKQKKERQQAEKNKQLLEQI-NH2)
nH (Hill coefficient) [1]: 0.6
solubility at 1 h ([2]; Buffer B: 100 mM acetate buffer, pH 4.5, 2.7 mg/ml m-cresol, target 10 mg/ml, read-out: Solubility in Buffer B): > 9400 µg/mL
solubility at 1 h ([2]; Buffer C: 100 mM phosphate buffer, pH 7.4, target 10 mg/ml, read-out: Solubility in Buffer C): > 9100 µg/mL
Apparent Rh [nm] 0 weeks [4, 9]: 3.66 ± 0.05 nm
Scattering Intensity (I) [%] 0 weeks [4, 9]: 100 ± 0%
Apparent Rh [nm] 4 weeks [4, 9]: 3.75 ± 0.08 nm
Scattering Intensity (I) [%] 4 weeks [4, 9]: 100 ± 0%

solubility at 1 h ([2]; pH 4.5, Solubility in Buffer A [mg/ml]): > 8400 µg/mL
solubility at 1 h [2, 5]: > 9200 µg/mL
solubility at 1 h [2, 6]: 7500 µg/mL (≈ 1450 µM)
Increase in FI (fluorescence intensity) [3, 8]: No
Lag time [3, 8]: >45 h
Apparent Rh [nm] 0 weeks [4, 10]: 2.83 ± 0.12 nm
Scattering Intensity (I) [%] 0 weeks [4, 10]: 99 ± 1%
Apparent Rh [nm] 4 weeks [4, 10]: 3.01 ± 0.03 nm
Scattering Intensity (I) [%] 4 weeks [4, 10]: 99 ± 1%
Apparent Rh [nm] 0 weeks [4, 11]: 2.54 ± 0.16 nm
Scattering Intensity (I) [%] 0 weeks [4, 11]: 100 ± 0%
Apparent Rh [nm] 4 weeks [4, 11]: 2.63 ± 0.15 nm
Scattering Intensity (I) [%] 4 weeks [4, 11]: 100 ± 0%
SMILES: CC[C@H](C)[C@H](N)C(=O)N[C@H](C(=O)N[C@@H](CC(C)C)C(=O)N[C@@H](CO)C(=O)N[C@@H](CC(C)C)C(=O)N[C@@H](CC(=O)O)C(=O)N[C@@H](C(=O)N1CCC[C@H]1C(=O)N[C@H](C(=O)N[C@@H](CCCCN)C(=O)N[C@@H](CC(C)C)C(=O)N[C@@H](CCCCNC(=O)COCCOCCNC(=O)COCCOCCNC(=O)CC[C@H](NC(=O)CCCCCCCCCCCCCCCCC(=O)O)C(=O)O)C(=O)N[C@@H](CCC(N)=O)C(=O)N[C@H](C(=O)N[C@@H](CC(C)C)C(=O)N[C@@H](CC(C)C)C(=O)N[C@@H](CCCCN)C(=O)N[C@@H](CCC(N)=O)C(=O)N[C@@H](CCC(=O)O)C(=O)N[C@@H](CCCNC(=N)N)C(=O)N[C@@H](CCC(N)=O)C(=O)N[C@@H](CCCCN)C(=O)NC(C)(C)C(=O)N[C@@H](CCC(N)=O)C(=O)N[C@@H](CCCNC(=N)N)C(=O)N[C@@H](CCC(N)=O)C(=O)N[C@@H](CCC(N)=O)C(=O)N[C@@H](C)C(=O)N[C@@H](CCC(=O)O)C(=O)N[C@@H](CCCCN)C(=O)N[C@@H](CC(N)=O)C(=O)N[C@@H](CCCCN)C(=O)N[C@@H](CCC(N)=O)C(=O)N[C@H](C(=O)N[C@@H](CC(C)C)C(=O)N[C@@H](C)C(=O)N[C@@H](CCC(N)=O)C(=O)N[C@H](C(N)=O)C(C)C)[C@@H](C)CC)[C@@H](C)CC)[C@@H](C)CC)C(C)C)C(C)C [compound 135] (H-IVLSLD[dV]PIKLK([AEEA-AEEA-γGlu-C18 diacid])QILLKQERQK[Aib]QRQQAEKNKQILAQV-NH2; N-terminus assumed)
